The source of these data is patent publication US20230114728A1 (Venatorx Pharmaceuticals, Inc., priority 2019, published 2023).

Test [1] relates to P. aeruginosa (ΔmexAB-oprM). The test can be described thus: Broth microdilution MIC in iron-depleted CAMHB (IDM). In kind it is cell-based. The settings on record: Pseudomonas aeruginosa, read-out: Minimum Inhibitory Concentration, P. aeruginosa ΔmexAB-OprM. In a few lines:
(§1)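 IDM = CAMHB stripped with Chelex 100 resin 2 h, supplemented CaCl2 82.5 mg/L, MgCl2 94.1 mg/L, ZnSO4 10 μM, pH 7.3. 2-fold compound dilutions; 2-8×10^5 CFU/mL; 37° C; Acinetobacter 20-24 h, Pseudomonas 16-20 h. Visual MIC.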
(In general: Dilution methods test growth across graded concentrations, often in twofold steps.)

Test [2] concerns P. aeruginosa CDC-0090 producing KPC-5, OXA-50, and PAO. Described as above. It counts as cell-based. The settings on record: Pseudomonas aeruginosa, read-out: Minimum Inhibitory Concentration, P. aeruginosa CDC-0090. In a few lines:
as §1

Test [3] deals with P. aeruginosa CDC-0054 producing VIM-4, OXA-50, and PAO. The test is described as above. In kind it is cell-based. The settings on record: Pseudomonas aeruginosa, read-out: Minimum Inhibitory Concentration, P. aeruginosa CDC-0054. The gist of the method:
as §1

Test [4] concerns A. baumannii CDC-0036 OXA-65, and OXA-24. The description is as above. It counts as cell-based. The settings on record: Acinetobacter baumannii, read-out: Minimum Inhibitory Concentration, CDC-0036. In a few lines: as §1
The target of test [5] is T1, N. gonorrhoeae PBP2 (Neisseria gonorrhoeae, UniProt P08149).
T1 construct: made in house
T1 sequence (P08149 whole entry): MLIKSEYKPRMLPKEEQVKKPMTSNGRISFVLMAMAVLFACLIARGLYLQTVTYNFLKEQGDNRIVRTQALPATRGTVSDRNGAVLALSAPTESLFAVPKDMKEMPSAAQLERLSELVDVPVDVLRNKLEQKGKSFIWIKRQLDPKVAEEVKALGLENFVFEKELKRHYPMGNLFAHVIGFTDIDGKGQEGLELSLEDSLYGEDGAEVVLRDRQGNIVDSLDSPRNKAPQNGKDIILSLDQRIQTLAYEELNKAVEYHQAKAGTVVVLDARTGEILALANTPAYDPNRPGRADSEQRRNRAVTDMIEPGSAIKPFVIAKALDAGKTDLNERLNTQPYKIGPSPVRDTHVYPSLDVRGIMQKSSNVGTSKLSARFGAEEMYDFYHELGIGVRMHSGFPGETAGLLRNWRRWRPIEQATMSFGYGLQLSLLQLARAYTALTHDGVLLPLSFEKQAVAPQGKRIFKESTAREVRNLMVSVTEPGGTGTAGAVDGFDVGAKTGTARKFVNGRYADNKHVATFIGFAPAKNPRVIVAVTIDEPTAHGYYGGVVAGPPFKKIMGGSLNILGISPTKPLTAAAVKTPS
The experiment in a line: Bocillin-FL fluorescence polarization competition binding assay, N. gonorrhoeae PBP2. The settings on record: fluorescence polarization competition binding assay using Bocillin-FL; read-out: N. gonorrhoeae PBP2 Potency. In a few lines: (§2)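 Fluorescence polarization (ex 490/em 520 nm) competition of inhibitors against Bocillin-FL at 0.1 μM, read up to 60 min. Final PBP levels: E. coli PBP3 1.5 μM; A. baumannii PBP2 2.5 μM, PBP3 0.2 μM in Tris pH 8.0/NaCl/glycerol/Tween 20; N. gonorrhoeae PBP2 […] in Hepes pH 8.0/NaCl/glycerol. EC50 = concentration halving PBP-bound Bocillin-FL.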

For test [6], the target named is T2, E. coli K12 PBP3 (Escherichia coli, UniProt P0AD68).
T2 construct: made in house
T2 sequence (P0AD68 1-577): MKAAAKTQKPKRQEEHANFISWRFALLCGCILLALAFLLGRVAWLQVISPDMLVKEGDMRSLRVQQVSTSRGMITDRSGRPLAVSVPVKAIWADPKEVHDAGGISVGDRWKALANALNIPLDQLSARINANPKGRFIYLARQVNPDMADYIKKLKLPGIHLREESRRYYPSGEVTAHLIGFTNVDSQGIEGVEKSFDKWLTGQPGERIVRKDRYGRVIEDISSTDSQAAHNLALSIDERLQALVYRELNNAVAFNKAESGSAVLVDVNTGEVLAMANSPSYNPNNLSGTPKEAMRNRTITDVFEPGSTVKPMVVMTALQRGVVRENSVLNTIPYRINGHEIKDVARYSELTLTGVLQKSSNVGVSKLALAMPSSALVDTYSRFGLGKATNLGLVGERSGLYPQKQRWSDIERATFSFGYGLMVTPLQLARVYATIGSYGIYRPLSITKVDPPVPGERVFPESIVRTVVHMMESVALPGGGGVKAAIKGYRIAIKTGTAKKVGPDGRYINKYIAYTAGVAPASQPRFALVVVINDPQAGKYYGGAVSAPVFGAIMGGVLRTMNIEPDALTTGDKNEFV
The experiment in a line: biochemical. In kind it is binding. In a few lines:
as §2

Converted amounts (≈) assume the structure as drawn. A value given as a limit tells only on which side of the number the result lay.

As for `NCCN1CCN(C(=O)N[C@@H](C(=O)N[C@H]2Cc3ccc(F)c(C(=O)O)c3OB2O)c2cc(F)c(O)c(O)c2Cl)C(=O)C1=O` (single isomer, unassigned) [Example 179], the MIC is 0.25 µg/mL (≈ 0.4 µM) in test [1], 2 to 4 µg/mL (≈ 3.2 to 6.39 µM) in test [2], 0.5 to 1 µg/mL (≈ 0.799 to 1.6 µM) in test [3] and 2 to 4 µg/mL (≈ 3.2 to 6.39 µM) in test [4]. Besides, the EC50 in test [5] was over 100 µM; in test [6] it was under 30 µM.

As to `NCCCN1CCN(C(=O)N[C@@H](C(=O)N[C@H]2Cc3ccc(F)c(C(=O)O)c3OB2O)c2cc(F)c(O)c(O)c2Cl)C(=O)C1=O` (single isomer, unassigned) [Example 180], the MIC in test [1] is 0.25 µg/mL (≈ 0.391 µM); in test [2] it was 2 to 4 µg/mL (≈ 3.13 to 6.25 µM); in test [3] it was 0.5 to 1 µg/mL (≈ 0.782 to 1.56 µM); in test [4] it was 8 to 16 µg/mL (≈ 12.5 to 25 µM). For the same molecule, the EC50 in test [5] is over 100 µM; in test [6] it was under 30 µM.

`C[C@@H](O)[C@@H](NC(=O)N1CCN(CCNC(=O)c2c(F)cc(O)c(O)c2Cl)C(=O)C1=O)C(=O)N[C@H]1Cc2ccc(F)c(C(=O)O)c2OB1O` [Example 102, (R)-3-((2R,3R)-2-(4-(2-(2-chloro-6-fluoro-3,4-dihydroxybenzamido)ethyl)-2,3-dioxopiperazine-1-carboxamido)-3-hydroxybutanamido)-7-fluoro-2-hydroxy-3,4-dihydro-2H-benzo[e][1,2]oxaborinine-8-carboxylic acid]: the MIC was 0.5 to 1 µg/mL (≈ 0.717 to 1.43 µM) in test [1], 2 to 4 µg/mL (≈ 2.87 to 5.73 µM) in test [2], 32 to 64 µg/mL (≈ 45.9 to 91.7 µM) in test [3] and 32 to 64 µg/mL (≈ 45.9 to 91.7 µM) in test [4]. Also, the EC50 in test [5] is 10 to 30 µM; in test [6], 30 to 500 µM.

Take `NS(=O)(=O)Nc1cccc(C(NC(=O)N2CCN(Cc3c(F)cc(O)c(O)c3Cl)C(=O)C2=O)C(=O)N[C@H]2Cc3cccc(C(=O)O)c3OB2O)c1` (stereo partly drawn) [Example 131, (3R)-3-(2-(4-(2-chloro-6-fluoro-3,4-dihydroxybenzyl)-2,3-dioxopiperazine-1-carboxamido)-2-(3-(sulfamoylamino)phenyl)acetamido)-2-hydroxy-3,4-dihydro-2H-benzo[e][1,2]oxaborinine-8-carboxylic acid]: the MIC in test [1] is 0.25 µg/mL (≈ 0.334 µM); in test [2], 2 to 4 µg/mL (≈ 2.67 to 5.34 µM); in test [3], over 128 µg/mL; in test [4], over 128 µg/mL. In test [6], this molecule displayed an EC50 of under 30 µM.

On to `NS(=O)(=O)c1cc(O)cc(C(NC(=O)N2CCN(Cc3c(F)cc(O)c(O)c3Cl)C(=O)C2=O)C(=O)N[C@H]2Cc3cccc(C(=O)O)c3OB2O)c1` (stereo partly drawn) [Example 132, (3R)-3-(2-(4-(2-chloro-6-fluoro-3,4-dihydroxybenzyl)-2,3-dioxopiperazine-1-carboxamido)-2-(3-hydroxy-5-sulfamoylphenyl)acetamido)-2-hydroxy-3,4-dihydro-2H-benzo[e][1,2]oxaborinine-8-carboxylic acid], for which the MIC in test [1] is 0.25 µg/mL (≈ 0.333 µM); in test [2] it was 2 to 4 µg/mL (≈ 2.67 to 5.33 µM); in test [3], over 128 µg/mL; in test [4], over 128 µg/mL. For the same molecule, in test [6], the EC50 lay in the range of 30 to 500 µM.
